As a reminder, the IC50 is the concentration needed to halve the response being measured. The Cmax is the peak of the concentration-time curve. The MRT is the average time that molecules of a dose stay in the body. One may read the AUC as concentration integrated over time. In general, bioavailability refers to dose-corrected exposure relative to a reference, in per cent. Broadly, the efflux ratio is a quotient of directional permeabilities that is used to spot active efflux. As usually defined, the pKa is the pH at which an ionisable group is half protonated. Low readings indicate a stronger acid or weaker base, high ones a weaker acid or stronger base.

This is an account of results in ChEMBL document CHEMBL3817725, “Design, synthesis, and biological evaluation of a novel series of peripheral-selective noradrenaline reuptake inhibitors - Part 3” (Bioorg Med Chem, 2016).

The species named for series [1] is Homo sapiens. Nature of the series: Selectivity ratio of IC50 for human SERT to IC50 for human NET.
The species named for series [2] is Homo sapiens. Nature of the series: Selectivity ratio of IC50 for human DAT to IC50 for human NET.
For series [3], the target named is Sodium-dependent serotonin transporter (Homo sapiens, UniProt P31645). Kind of series: Inhibition of human SERT expressed in CHO cells assessed as [3H]-5-hydroxytryptamine reuptake incubated for 20 mins measured after 30 mins by topcount method. It counts as cell-based.
Series [4] deals with Sodium-dependent dopamine transporter (Homo sapiens, UniProt Q01959). Kind of series: Inhibition of human DAT expressed in CHO cells assessed as [3H]-dopamine reuptake incubated for 60 mins measured after 30 mins by topcount method. It counts as cell-based.
A short description of series [5]: Cmax in Crl:CD(SD)(IGS) rat at 1 mg/kg, po administered via cassette dosing by LC/MS/MS analysis. It counts as ADME, organism-based. On the set-up: dose 1 mg/kg, route oral. The note with it: in vivo.
A short description of series [6]: Mean residence time in Crl:CD(SD)(IGS) rat at 1 mg/kg, po administered via cassette dosing by LC/MS/MS analysis. It is filed as ADME, organism-based. Particulars: in vivo.
A short description of series [7]: AUC in Crl:CD(SD)(IGS) rat at 1 mg/kg, po administered via cassette dosing by LC/MS/MS analysis. It is filed as ADME, organism-based. Particulars: in vivo.
The nature of series [8]: Oral bioavailability in Crl:CD(SD)(IGS) rat at 1 mg/kg administered via cassette dosing by LC/MS/MS analysis. It is filed as ADME, organism-based. Particulars: in vivo.
Series [9] concerns Rattus norvegicus. Kind of series: Ex vivo occupancy at NET in Sprague-Dawley rat brain cortex assessed as inhibition of [3H]-nisoxetine binding at 3 mg/kg, iv measured after 1 hr by scintillation counting method. It counts as functional.
The target in series [10] is Sodium-dependent noradrenaline transporter (Homo sapiens, UniProt P23975). Nature of the series: Inhibition of human NET expressed in CHO cells assessed as [3H]-Norepinephrine reuptake incubated for 45 mins measured after 30 mins by topcount method. It counts as cell-based.
The subject of the next series is MDR1. Kind of series: Efflux ratio of apparent permeability from basolateral to apical side over apical to basolateral side in pig LLC-PK1 cells expressing human MDR1 at 10 umol/l after 2 hrs by LC/MS/MS analysis. It is filed as ADME, cell-based, Sus scrofa.
A short description of series [11]: Dissociation constant, pKa of the compound. It counts as physicochemical.
In series [12] the test system is Rattus norvegicus. Kind of series: Increase in urethral resistance in po dosed rat assessed as increase in leak point pressure after 15 mins to 4 hrs by Evans blue dye leakage based assay. It counts as functional, organism-based. The note with it: Urethra.

Chain of Sodium-dependent serotonin transporter (P31645 whole entry): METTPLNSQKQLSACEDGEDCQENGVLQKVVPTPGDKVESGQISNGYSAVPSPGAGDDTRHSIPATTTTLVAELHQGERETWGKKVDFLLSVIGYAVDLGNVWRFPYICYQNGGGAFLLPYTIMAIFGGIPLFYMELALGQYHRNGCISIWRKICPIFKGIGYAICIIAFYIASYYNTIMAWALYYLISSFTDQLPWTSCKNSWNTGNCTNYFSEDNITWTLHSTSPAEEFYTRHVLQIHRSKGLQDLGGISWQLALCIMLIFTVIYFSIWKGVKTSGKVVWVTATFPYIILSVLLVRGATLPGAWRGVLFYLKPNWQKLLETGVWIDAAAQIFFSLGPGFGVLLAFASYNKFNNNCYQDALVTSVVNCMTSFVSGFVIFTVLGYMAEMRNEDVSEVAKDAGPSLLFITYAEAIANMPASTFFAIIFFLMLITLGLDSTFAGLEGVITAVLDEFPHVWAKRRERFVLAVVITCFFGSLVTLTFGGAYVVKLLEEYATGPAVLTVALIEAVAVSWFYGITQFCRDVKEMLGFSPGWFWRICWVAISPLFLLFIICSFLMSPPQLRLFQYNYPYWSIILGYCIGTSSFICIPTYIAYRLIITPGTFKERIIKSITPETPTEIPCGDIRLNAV
Chain of Sodium-dependent noradrenaline transporter (P23975 whole entry): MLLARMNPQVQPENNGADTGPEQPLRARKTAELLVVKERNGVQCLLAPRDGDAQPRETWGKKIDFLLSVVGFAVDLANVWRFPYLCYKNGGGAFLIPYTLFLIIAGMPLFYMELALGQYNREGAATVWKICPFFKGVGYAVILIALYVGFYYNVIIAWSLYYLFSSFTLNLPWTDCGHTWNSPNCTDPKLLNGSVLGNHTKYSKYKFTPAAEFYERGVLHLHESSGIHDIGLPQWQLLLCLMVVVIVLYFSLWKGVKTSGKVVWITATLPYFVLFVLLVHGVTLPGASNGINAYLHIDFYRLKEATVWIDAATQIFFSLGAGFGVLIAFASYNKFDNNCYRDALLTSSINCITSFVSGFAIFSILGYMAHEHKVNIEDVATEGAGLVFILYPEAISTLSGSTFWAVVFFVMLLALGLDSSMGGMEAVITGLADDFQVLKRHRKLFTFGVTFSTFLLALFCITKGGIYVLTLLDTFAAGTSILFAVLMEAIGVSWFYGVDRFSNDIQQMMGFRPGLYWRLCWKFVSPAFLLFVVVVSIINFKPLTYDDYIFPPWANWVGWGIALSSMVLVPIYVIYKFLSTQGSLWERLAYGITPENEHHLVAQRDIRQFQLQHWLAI
Chain of Sodium-dependent dopamine transporter (Q01959 whole entry): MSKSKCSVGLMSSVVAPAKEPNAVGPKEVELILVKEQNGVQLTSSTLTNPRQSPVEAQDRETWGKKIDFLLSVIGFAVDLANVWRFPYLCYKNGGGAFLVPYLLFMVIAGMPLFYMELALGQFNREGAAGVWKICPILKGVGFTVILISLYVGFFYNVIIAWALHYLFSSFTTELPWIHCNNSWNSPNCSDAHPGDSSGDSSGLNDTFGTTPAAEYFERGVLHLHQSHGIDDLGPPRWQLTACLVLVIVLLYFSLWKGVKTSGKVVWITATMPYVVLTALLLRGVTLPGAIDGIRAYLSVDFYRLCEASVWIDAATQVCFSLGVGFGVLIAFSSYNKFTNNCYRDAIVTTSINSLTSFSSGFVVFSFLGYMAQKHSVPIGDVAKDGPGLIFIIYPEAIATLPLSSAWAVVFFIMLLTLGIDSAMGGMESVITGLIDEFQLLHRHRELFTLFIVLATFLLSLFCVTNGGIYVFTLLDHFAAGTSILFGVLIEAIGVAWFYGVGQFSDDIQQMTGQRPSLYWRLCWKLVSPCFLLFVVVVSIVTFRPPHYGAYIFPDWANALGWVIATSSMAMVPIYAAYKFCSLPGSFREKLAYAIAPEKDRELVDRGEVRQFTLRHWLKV

Take `CC(=O)NC[C@@H]1CNCCO[C@H]1c1ccc(Cl)c(F)c1`: the Ratio IC50 in the series filed under Homo sapiens [1] and in the series filed under Homo sapiens [2] was over 440 each time. In addition, the IC50 in series [3] and in series [4] was over 1000 nM each time.
For the molecule `Cl.O=c1ccccn1C[C@@H]1CNCCO[C@H]1c1ccc(Cl)c(F)c1`, the figures for the Ratio IC50 in the series filed under Homo sapiens [1] and in the series filed under Homo sapiens [2] were 1700 and over 13000, respectively. Also, the Cmax in [5] was 47.9 ng/mL. For the same molecule, in series [6], the MRT came to 2.1 h. In addition, the AUC in series [7] stood at 107 ng·h/mL. This molecule returned a bioavailability in [8] of 20%. Besides, the Occ in the series on Rattus norvegicus [9] is listed as 83.4%. Also, the IC50 in series [10] was 0.079 nM; in series [3] it was 130 nM; in series [4], over 1000 nM.
For the molecule `O=C1CCCN1C[C@@H]1CNCCO[C@H]1c1ccc(Cl)c(F)c1`, the Ratio IC50 in the series filed under Homo sapiens [1] was determined as 650; in the series listed under Homo sapiens [2], 3100. Also, the IC50 was 0.13 nM in series [10], 85 nM in series [3] and 400 nM in series [4].
Turning to `Cl.O=c1[nH]c(-c2ccc(=O)n(C[C@@H]3CNCCO[C@H]3c3ccc(Cl)c(F)c3)c2)no1`, in the series on MDR1, the efflux ratio at 2 h, 10 µM was determined as 1.6. Besides, the pKa in series [11] worked out at 5.72. Moreover, the IC50 was 25 nM in series [10], over 1000 nM in series [3] and over 1000 nM in series [4].
For `Cl.O=c1[nH]c(-c2cccn(C[C@@H]3CNCCO[C@H]3c3ccc(Cl)c(F)c3)c2=O)no1`, in the series with MDR1, the efflux ratio at 2 h, 10 µM came to 1.9. Also, the pKa in series [11] was 5.45. Besides, the Cmax in series [5] is 17.2 ng/mL. Further, in series [6], the MRT was 1.5 h. Moreover, in [7], the AUC stood at 38.9 ng·h/mL. In [8], this molecule registered a bioavailability of 12%. Further, the Occ with Rattus norvegicus [9] amounted to 28.4%. Besides, the IC50 in series [10] is 1 nM; in series [3] it was 380 nM; in [4], over 1000 nM.
As to `Cl.O=c1[nH]c(-c2ccn(C[C@@H]3CNCCO[C@H]3c3ccc(Cl)c(F)c3)c(=O)c2)no1`, the efflux ratio at 2 h, 10 µM in the series with MDR1 was over 0.8. This molecule also gave a pKa in series [11] of 5.89. Besides, the IC50 in series [10] was 1.9 nM; in [3], 120 nM; in series [4], over 1000 nM.
Consider `Cc1nnc(-c2cccn(C[C@@H]3CNCCO[C@H]3c3ccc(Cl)c(F)c3)c2=O)[nH]1.Cl`, for which, in the series on MDR1, the efflux ratio at 2 h, 10 µM was 6.8. Besides, in [11], the pKa was 9.68. The concentration for half-maximal inhibition (IC50) was 0.64 nM in [10], 67 nM in series [3] and over 1000 nM in series [4].
On to `O=c1cccnn1C[C@@H]1CNCCO[C@H]1c1ccc(Cl)c(F)c1`, for which the Ratio IC50 in the series filed under Homo sapiens [1] worked out at 1200; in the series filed under Homo sapiens [2] it was 3600. For the same molecule, the results for the IC50 in series [10], in [3] and in series [4] were 0.065 nM, 79 nM and 240 nM, respectively.
The matching figures for `O=C1NCCCN1C[C@@H]1CNCCO[C@H]1c1ccc(Cl)c(F)c1`: 150, 820, 0.08 nM, 12 nM and 66 nM.
In the case of `COC(=O)c1cccn(C[C@@H]2CNCCO[C@H]2c2ccc(Cl)c(F)c2)c1=O.Cl`, in the series on MDR1, the efflux ratio at 2 h, 10 µM came to 7.8. For the same molecule, the figures for the half-inhibitory concentration (IC50) in series [10], in series [3] and in series [4] were 0.21 nM, 54 nM and over 1000 nM, respectively.
Regarding `O=C1CCCCN1C[C@@H]1CNCCO[C@H]1c1ccc(Cl)c(F)c1`, the Ratio IC50 in the series filed under Homo sapiens [1] was determined as 270; in the series filed under Homo sapiens [2], 1300. Moreover, the results for the IC50 in [10], in series [3] and in series [4] were 0.1 nM, 27 nM and 130 nM, respectively.
With `Cl.O=c1c(-c2nnn[nH]2)cccn1C[C@@H]1CNCCO[C@H]1c1ccc(Cl)c(F)c1`, in the series on MDR1, the efflux ratio at 2 h, 10 µM stood at 1.7. Moreover, the pKa in [11] stood at 3.88. In series [5], this molecule returned a Cmax of 16.2 ng/mL. In series [6], the MRT turned out to be 2 h. Also, the AUC in series [7] turned out to be 44 ng·h/mL. The bioavailability in series [8] was 8%. The Occ with Rattus norvegicus [9] came out at 12%. Further, the values for the IC50 in series [10], in series [3] and in series [4] were 1.4 nM, 730 nM and over 1000 nM, respectively.
In the case of `Cl.O=C(O)c1cccn(C[C@@H]2CNCCO[C@H]2c2ccc(Cl)c(F)c2)c1=O`, the efflux ratio at 2 h, 10 µM in the series on MDR1 came to 2.1. This molecule registered a pKa in series [11] of 2.58. The same molecule came in with a Cmax in [5] of 93.8 ng/mL. For the same molecule, the MRT in series [6] was determined as 1.9 h. Further, the AUC in series [7] worked out at 197 ng·h/mL. Also, in [8], the bioavailability was 41%. Besides, the Occ in the series on Rattus norvegicus [9] was 14%. For the same molecule, the Activity entry with Rattus norvegicus [12] is “Dose-dependent effect”. Besides, the IC50 was 1.1 nM in [10], over 1000 nM in [3] and over 1000 nM in series [4].
`Cl.O=c1[nH]c(-c2cccc(=O)n2C[C@@H]2CNCCO[C@H]2c2ccc(Cl)c(F)c2)no1`: the efflux ratio at 2 h, 10 µM in the series with MDR1 is 0.6. Moreover, the pKa in [11] was determined as 6.35. Further, the values for the half-inhibitory concentration (IC50) in series [10], in series [3] and in series [4] were 100 nM, over 1000 nM and over 1000 nM, respectively.
